The results in this text go back to patent publication US9604961B2, “Histone demethylase inhibitors” (Celgene Quanticel Research, Inc., priority 2012, dated 2017).

Where two headings read alike, the source gives them in different places.

The target of one experiment is Jarid1A (Homo sapiens (Human), UniProt P29375). The experiment can be described thus: Jarid1A in vitro enzyme inhibition assay (TR-FRET). It is filed as biochemical. From the text:
The enzymatic assay of Jarid1A activity is based upon Time Resolved-Fluorescence Resonance Energy Transfer (TR-FRET) detection.
In general terms: Time-resolved FRET reads energy transfer from a long-lived donor to a nearby acceptor.

The target of another experiment is Jarid1B (Homo sapiens (Human), UniProt Q9UGL1). The experiment in a line: Jarid1B in vitro enzyme inhibition assay (TR-FRET). It is filed as biochemical.
Jarid1B, sequence (Q9UGL1 2-751): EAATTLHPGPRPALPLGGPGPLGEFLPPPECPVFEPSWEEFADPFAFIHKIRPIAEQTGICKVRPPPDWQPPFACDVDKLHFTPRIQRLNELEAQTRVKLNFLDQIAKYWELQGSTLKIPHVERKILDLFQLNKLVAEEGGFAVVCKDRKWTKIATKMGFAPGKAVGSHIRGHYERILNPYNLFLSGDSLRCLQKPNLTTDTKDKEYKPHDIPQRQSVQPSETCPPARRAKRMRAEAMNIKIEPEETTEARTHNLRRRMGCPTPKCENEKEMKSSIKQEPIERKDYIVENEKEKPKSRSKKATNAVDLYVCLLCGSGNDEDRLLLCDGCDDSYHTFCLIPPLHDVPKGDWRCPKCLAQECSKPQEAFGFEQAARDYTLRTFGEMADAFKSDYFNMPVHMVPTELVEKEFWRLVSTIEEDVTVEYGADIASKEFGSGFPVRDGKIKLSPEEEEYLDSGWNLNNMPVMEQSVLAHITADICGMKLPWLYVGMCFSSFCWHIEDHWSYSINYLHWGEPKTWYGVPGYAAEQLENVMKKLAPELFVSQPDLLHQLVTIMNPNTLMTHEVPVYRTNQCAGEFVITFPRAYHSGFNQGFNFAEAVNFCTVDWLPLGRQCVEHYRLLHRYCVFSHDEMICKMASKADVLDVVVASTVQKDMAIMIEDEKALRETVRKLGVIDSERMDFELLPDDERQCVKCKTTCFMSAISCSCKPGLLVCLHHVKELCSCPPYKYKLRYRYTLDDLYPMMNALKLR
For another experiment, the target named is JMJD2C (Homo sapiens (Human), UniProt Q9H3R0). The experiment in a line: JMJD2C in vitro enzyme inhibition assay (TR-FRET). The format is biochemical.
JMJD2C, sequence (Q9H3R0 2-372): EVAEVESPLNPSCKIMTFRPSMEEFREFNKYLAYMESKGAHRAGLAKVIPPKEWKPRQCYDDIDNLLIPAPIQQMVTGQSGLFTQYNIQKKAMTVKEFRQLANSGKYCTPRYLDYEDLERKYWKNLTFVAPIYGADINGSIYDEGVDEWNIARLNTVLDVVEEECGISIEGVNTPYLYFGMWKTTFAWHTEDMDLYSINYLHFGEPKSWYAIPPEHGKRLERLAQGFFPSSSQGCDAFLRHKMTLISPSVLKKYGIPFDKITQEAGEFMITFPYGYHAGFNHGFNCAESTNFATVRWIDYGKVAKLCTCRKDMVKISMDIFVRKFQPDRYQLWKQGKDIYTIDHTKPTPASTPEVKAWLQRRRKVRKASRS
In the next experiment the target is FBXL10 (Homo sapiens (Human), UniProt Q8NHM5). The experiment can be described thus: FBXL10 in vitro enzyme inhibition assay (AlphaScreen). It is filed as biochemical. How it is done: Reaction product was determined quantitatively by AlphaScreen detection after the addition of detection reagents anti-H3K36me1 antibody, AlphaScreen® Streptavidin-coated Donor beads, and AlphaScreen® Protein A Acceptor beads in 50 mM HEPES, pH7.3, 10 mM NaCl, 0.005% Brij35, 5 mM EDTA, 2 mg/ml BSA to final 10 μg/ml beads.
FBXL10, sequence (Q8NHM5 1-650): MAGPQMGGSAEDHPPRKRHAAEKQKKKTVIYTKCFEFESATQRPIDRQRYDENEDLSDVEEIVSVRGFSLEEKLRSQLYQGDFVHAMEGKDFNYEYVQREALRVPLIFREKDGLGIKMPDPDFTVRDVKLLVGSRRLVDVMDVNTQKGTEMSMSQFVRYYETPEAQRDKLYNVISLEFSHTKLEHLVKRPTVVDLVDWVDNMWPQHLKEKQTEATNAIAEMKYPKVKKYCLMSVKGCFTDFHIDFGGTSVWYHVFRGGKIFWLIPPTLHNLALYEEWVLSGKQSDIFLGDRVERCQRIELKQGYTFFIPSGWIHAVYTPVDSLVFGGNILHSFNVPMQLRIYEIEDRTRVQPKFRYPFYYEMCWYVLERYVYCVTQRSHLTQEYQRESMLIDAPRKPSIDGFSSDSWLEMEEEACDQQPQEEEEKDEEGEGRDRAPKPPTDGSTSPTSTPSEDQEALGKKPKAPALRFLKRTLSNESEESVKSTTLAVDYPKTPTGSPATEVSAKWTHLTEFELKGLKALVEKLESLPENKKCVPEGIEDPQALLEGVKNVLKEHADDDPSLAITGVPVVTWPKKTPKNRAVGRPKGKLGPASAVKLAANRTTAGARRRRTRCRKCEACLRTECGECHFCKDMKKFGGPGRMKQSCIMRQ
Plates were incubated at room temperature for 40 minutes, followed by addition of 3 μl of 50 μg/ml AlphaScreen® Streptavidin-coated Donor beads and AlphaScreen® Protein A Acceptor beads in 50 mM HEPES, pH7.3, 10 mM NaCl, 0.005% Brij35, 5 mM EDTA, 2 mg/ml BSA. Plates were read by EnVisionMultilabel Reader in AlphaScreen mode after a minimum of 2 hour or up to overnight incubation at room temperature. The AlphaScreen signal for each well was used to determine inhibition constant (IC50).
For orientation: In Alpha technology, singlet oxygen from a donor bead excites a nearby acceptor bead.

In another experiment the target is JMJD2A (Homo sapiens (Human), UniProt O75164). The experiment in a line: JMJD2A in vitro enzyme inhibition assay (TR-FRET). The conditions noted are these: read-out: JMJD2A IC50.
JMJD2A, sequence (O75164 1-350): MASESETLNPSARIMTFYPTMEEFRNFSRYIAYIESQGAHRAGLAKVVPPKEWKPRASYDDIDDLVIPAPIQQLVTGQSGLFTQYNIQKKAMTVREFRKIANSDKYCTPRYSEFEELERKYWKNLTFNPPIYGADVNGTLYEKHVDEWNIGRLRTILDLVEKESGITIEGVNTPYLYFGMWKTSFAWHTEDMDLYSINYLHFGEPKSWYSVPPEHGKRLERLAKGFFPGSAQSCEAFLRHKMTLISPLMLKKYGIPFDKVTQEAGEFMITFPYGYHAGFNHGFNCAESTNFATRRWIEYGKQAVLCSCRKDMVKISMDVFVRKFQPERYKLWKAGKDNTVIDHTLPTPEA
The subject of the next experiment is KDM5A/B. The experiment can be described thus: In vitro cell-based assay: quantitative immuno-blotting of tri-methyl H3K4 in ZR-75-1 breast cancer cells. The conditions noted are these: 72 hours exposure, read-out: Cellular IC50. From the text: This quantitative immuno-blotting assay measures the amount tri-methylated histone H3 at amino acid Lysine number 4, a specific substrate […] of the direct enzymatic activity of the histone demethylases KDM5A and KDM5B from extracts of the ZR-75-1 breast cancer cell line.
This assay is a fluorometric immunoassay for the quantification of tri-methyl H3K4 extracted from cells treated with test compound and is used as a measure of the cellular inhibition of KDM5A/B.
ZR-75-1 (PTEN null, ER+) breast cancer cells numbering 50,000 (ATCC) were seeded into each well of a 96-well tissue culture treated plate and then exposed to an 11 point dilution of test compound with final concentration ranges of test compound ranging from […] to 10 nM. […] Extracts were prepared containing all of the cellular histone material using detergent based lysis and sonication methods. These lysates were subsequently normalized for total protein content using a colorimetric bicinchonic acid assay (MicroBCA Pierce/Thermo Scientific). Normalized cell extracts were then subjected to typical immuno-blotting procedures using NuPage reagents (Life Technologies). Electrophoretically separated histones were then transferred and immobilized using polyvinylidene difluoride membrane (Immobilon-FL Millipore). The amount of tri-methylated lysine 4 of histone H3 was detected using an antibody specific to the tri-methylated state (Cell Signaling Technologies) and quantified on an infrared imager using a densitometry software package (Odyssey CLx, Image Studio, Li-Cor). This background subtracted densitometry value was reported as a ration of the GAPDH amount for that sample and then calculated as a percent of the DMSO treated sample. The software package XL-fit (IDBS) was then used to calculate a relative IC50 value for the dilution series of a given test compound according to the equation: fit=(D+((Vmax*(x^n))/((x^n)+(Km^n)))).

Jarid1A, sequence (P29375 1-1090): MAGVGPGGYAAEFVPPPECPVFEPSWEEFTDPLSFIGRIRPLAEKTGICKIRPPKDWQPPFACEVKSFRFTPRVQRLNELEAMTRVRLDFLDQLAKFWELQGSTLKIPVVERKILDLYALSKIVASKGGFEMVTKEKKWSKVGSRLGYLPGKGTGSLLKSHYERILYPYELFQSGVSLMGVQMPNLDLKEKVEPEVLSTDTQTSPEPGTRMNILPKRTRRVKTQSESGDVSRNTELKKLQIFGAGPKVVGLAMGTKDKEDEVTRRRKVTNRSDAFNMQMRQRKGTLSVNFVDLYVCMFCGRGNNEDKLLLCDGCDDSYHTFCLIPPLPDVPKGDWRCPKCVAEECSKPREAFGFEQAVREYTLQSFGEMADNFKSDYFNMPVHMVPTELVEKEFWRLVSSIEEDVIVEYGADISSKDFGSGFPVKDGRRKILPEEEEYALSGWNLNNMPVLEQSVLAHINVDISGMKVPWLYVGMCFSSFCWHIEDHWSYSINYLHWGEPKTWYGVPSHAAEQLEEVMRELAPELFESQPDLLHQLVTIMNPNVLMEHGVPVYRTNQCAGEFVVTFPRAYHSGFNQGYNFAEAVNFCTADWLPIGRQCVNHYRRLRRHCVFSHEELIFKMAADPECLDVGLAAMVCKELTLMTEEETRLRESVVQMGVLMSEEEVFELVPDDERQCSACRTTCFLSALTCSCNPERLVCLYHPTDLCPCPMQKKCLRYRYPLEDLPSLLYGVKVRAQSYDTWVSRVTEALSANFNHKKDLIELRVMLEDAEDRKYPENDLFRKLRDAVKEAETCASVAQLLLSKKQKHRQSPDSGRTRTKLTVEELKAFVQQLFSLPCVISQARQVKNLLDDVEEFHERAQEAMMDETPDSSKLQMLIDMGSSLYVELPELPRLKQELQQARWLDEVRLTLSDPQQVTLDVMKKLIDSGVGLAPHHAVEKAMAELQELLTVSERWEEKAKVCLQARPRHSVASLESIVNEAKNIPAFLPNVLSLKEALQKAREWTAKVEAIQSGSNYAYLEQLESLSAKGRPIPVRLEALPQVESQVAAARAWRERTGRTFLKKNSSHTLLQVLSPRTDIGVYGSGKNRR
Protocol for JMJD2A: This assay determines the ability of a test compound to inhibit Jarid1A, Jarid1B, JMJD2C, and JMJD2A demethylase activity.
Reaction product was determined quantitatively by TR-FRET after the addition of detection reagent Phycolink Streptavidin-allophycocyanin (Prozyme) and Europium-anti-di-methylated histone H3 lysine 9 (H3K9me2) antibody (PerkinElmer) in the presence of 5 mM EDTA in LANCE detection buffer (PerkinElmer) at a final concentration of 50 nM and 1 nM, respectively.
The assay reaction was initiated by the following: 2 μl of the mixture of 900 nM H3K9me3-biotin labeled peptide and 6 μM alpha-ketoglutaric acid with 2 μl of 11-point serial diluted inhibitor in 3% DMSO were added to each well of plate, followed by the addition of 2 μl of 6 nM JMJD2A to initiate the reaction. The reaction mixture was incubated at room temperature for 30 minutes, and terminated by the addition of 6 μl of 5 mM EDTA in LANCE detection buffer containing 100 nM Phycolink Streptavidin-allophycocyanin and 2 nM Europium-anti-H3K9me2 antibody.

For the molecule `O=C(O)c1ccnc(-n2nc(C3CC3)cc2O)c1` [Example 2, 2-(3-cyclopropyl-5-hydroxy-1H-pyrazol-1-yl)isonicotinic acid], the IC50 against Jarid1A is below 0.1 µM; at Jarid1B, below 0.1 µM; against JMJD2C, 0.1 to 1 µM; on FBXL10, below 0.1 µM; on JMJD2A, 0.1 to 1 µM.

As for `O=C(O)c1ccnc(-n2nccc2OCc2ccc(Br)cc2)c1` [Example 57, 2-{5-[(4-bromobenzyl)oxy]-1H-pyrazol-1-yl}pyridine-4-carboxylic acid], the IC50 against Jarid1A was below 0.1 µM; against Jarid1B, below 0.1 µM; on JMJD2C it was below 0.1 µM; with KDM5A/B (Homo sapiens), 0.1 to 1 µM.

As for `O=C(O)c1ccnc(-n2nccc2OCc2cccc(Br)c2)c1` [Example 72, 2-{5-[(3-bromobenzyl)oxy]-1H-pyrazol-1-yl}pyridine-4-carboxylic acid], the IC50 at Jarid1A was below 0.1 µM; at Jarid1B, below 0.1 µM; on JMJD2C, below 0.1 µM; in the experiment with KDM5A/B (Homo sapiens), 1 to 10 µM.

With `O=C(O)c1ccnc(-n2nccc2OCc2ccc(Cl)c(F)c2)c1` [Example 74, 2-{5-[(4-chloro-3-fluorobenzyl)oxy]-1H-pyrazol-1-yl}pyridine-4-carboxylic acid], the IC50 at Jarid1A is below 0.1 µM; against Jarid1B, below 0.1 µM; against JMJD2C, below 0.1 µM; in the experiment on KDM5A/B (Homo sapiens) it was 1 to 10 µM.

Turning to `O=C(O)c1ccnc(-n2nccc2OCc2ccc(Cl)c(Cl)c2)c1` [Example 87, 2-[5-[(3,4-dichlorophenyl)methoxy]pyrazol-1-yl]pyridine-4-carboxylic acid], the IC50 at Jarid1A was below 0.1 µM; against Jarid1B, below 0.1 µM; against JMJD2C, 0.1 to 1 µM; with KDM5A/B (Homo sapiens), 0.1 to 1 µM.

Regarding `CCCCOc1cc(Cl)ccc1COc1ccnn1-c1cc(C(=O)O)ccn1` [Example 111, 2-[5-[(2-butoxy-4-chlorophenyl)methoxy]pyrazol-1-yl]pyridine-4-carboxylic acid], the IC50 lay within 0.1 to 1 µM against Jarid1A; 0.1 to 1 µM against Jarid1B; 1 to 10 µM on JMJD2C; 1 to 10 µM on FBXL10; 1 to 10 µM on JMJD2A.

Take `CC(C)COc1cc(Cl)ccc1COc1ccnn1-c1cc(C(=O)O)ccn1` [Example 112, 2-[5-[[4-chloro-2-(2-methylpropoxy)phenyl]methoxy]pyrazol-1-yl]pyridine-4-carboxylic acid]: the IC50 against Jarid1A lay within 0.1 to 1 µM; against Jarid1B, 0.1 to 1 µM; against JMJD2C, 1 to 10 µM; at FBXL10, 1 to 10 µM; on JMJD2A, 1 to 10 µM.

Consider `CCOc1cc(Cl)ccc1COc1ccnn1-c1cc(C(=O)O)ccn1` [Example 115, 2-[5-[(4-chloro-2-ethoxyphenyl)methoxy]pyrazol-1-yl]pyridine-4-carboxylic acid], for which the IC50 on Jarid1A was below 0.1 µM; against Jarid1B, below 0.1 µM; at JMJD2C, 0.1 to 1 µM; with KDM5A/B (Homo sapiens), 0.1 to 1 µM.

As for `O=C(O)c1ccnc(-n2nccc2OCc2ccc(F)cc2OCc2ccc(F)cc2)c1` [Example 118, 2-[5-[[4-fluoro-2-[(4-fluorophenyl)methoxy]phenyl]methoxy]pyrazol-1-yl]pyridine-4-carboxylic acid], the IC50 against Jarid1A is below 0.1 µM; against Jarid1B, below 0.1 µM; against JMJD2C, 0.1 to 1 µM; at FBXL10 it was 1 to 10 µM; at JMJD2A it was 0.1 to 1 µM.

Consider `CC1(C)Cc2cccc(COc3ccnn3-c3cc(C(=O)O)ccn3)c2O1` [Example 124, 2-[5-[(2,2-dimethyl-3H-1-benzofuran-7-yl)methoxy]pyrazol-1-yl]pyridine-4-carboxylic acid], for which the IC50 on Jarid1A was 0.1 to 1 µM; on Jarid1B, below 0.1 µM; with KDM5A/B (Homo sapiens), above 10 µM.

`Cc1cc(C#N)ccc1COc1ccnn1-c1cc(C(=O)O)ccn1` [Example 125, 2-[5-[(4-cyano-2-methylphenyl)methoxy]pyrazol-1-yl]pyridine-4-carboxylic acid]: the IC50 at Jarid1A is below 0.1 µM; on Jarid1B, below 0.1 µM; on JMJD2C, 0.1 to 1 µM; in the experiment on KDM5A/B (Homo sapiens), 1 to 10 µM.

For `Cc1ccc(COc2ccnn2-c2cc(C(=O)O)ccn2)c(Cl)c1` [Example 130, 2-[5-[(2-chloro-4-methylphenyl)methoxy]pyrazol-1-yl]pyridine-4-carboxylic acid], the IC50 against Jarid1A fell in the range of 0.1 to 1 µM; against Jarid1B it was 0.1 to 1 µM; at JMJD2C, 1 to 10 µM; on FBXL10, 1 to 10 µM; on JMJD2A, 0.1 to 1 µM.

As for `Cc1ccc(COc2ccnn2-c2cc(C(=O)O)ccn2)c(C)c1` [Example 132, 2-[5-[(2,4-dimethylphenyl)methoxy]pyrazol-1-yl]pyridine-4-carboxylic acid], the IC50 against Jarid1A was below 0.1 µM; against Jarid1B, below 0.1 µM; against JMJD2C, 0.1 to 1 µM; on FBXL10, 1 to 10 µM; at JMJD2A it was 0.1 to 1 µM.

As for `O=C(O)c1ccnc(-n2nccc2OCc2ccc(F)c(OCc3ccc(F)cc3)c2)c1` [Example 139, 2-[5-[[4-fluoro-3-[(4-fluorophenyl)methoxy]phenyl]methoxy]pyrazol-1-yl]pyridine-4-carboxylic acid], in the experiment on KDM5A/B (Homo sapiens), the IC50 fell in the range of 0.1 to 1 µM.

For `O=C(O)c1ccnc(-n2nccc2OCc2ccc(Cl)c(OCC3CC3)c2)c1` [Example 140, 2-[5-[[4-chloro-3-(cyclopropylmethoxy)phenyl]methoxy]pyrazol-1-yl]pyridine-4-carboxylic acid], the IC50 is 0.1 to 1 µM on Jarid1A, 0.1 to 1 µM at Jarid1B, 1 to 10 µM against FBXL10 and 0.1 to 1 µM on JMJD2A.

With `O=C(O)c1ccnc(-n2nc(-c3ccc(Cl)cc3)cc2O)c1` [Example 158, 2-[3-(4-chlorophenyl)-5-hydroxypyrazol-1-yl]pyridine-4-carboxylic acid], the IC50 was 1 to 10 µM against Jarid1A; 1 to 10 µM on Jarid1B; 1 to 10 µM on JMJD2C; below 0.1 µM at FBXL10; 1 to 10 µM on JMJD2A.

For `O=C(O)c1ccnc(-n2nc(-c3cccc(Cl)c3)cc2O)c1` [Example 159, 2-[3-(3-chlorophenyl)-5-hydroxypyrazol-1-yl]pyridine-4-carboxylic acid], the IC50 on Jarid1A is 1 to 10 µM; on Jarid1B, 1 to 10 µM; against JMJD2C, 1 to 10 µM; against FBXL10 it was below 0.1 µM; at JMJD2A, above 10 µM.

In the case of `O=C(O)c1ccnc(-n2nc(C3CCCC3)cc2O)c1` [Example 160, 2-(3-cyclopentyl-5-hydroxypyrazol-1-yl)pyridine-4-carboxylic acid], the IC50 is 1 to 10 µM against Jarid1A; 0.1 to 1 µM on Jarid1B; 1 to 10 µM against JMJD2C; below 0.1 µM against FBXL10; above 10 µM on JMJD2A.

With `O=C(O)c1ccnc(-n2nc(Cc3cccc(Cl)c3)cc2O)c1` [Example 164, 2-[3-[(3-chlorophenyl)methyl]-5-hydroxypyrazol-1-yl]pyridine-4-carboxylic acid], the IC50 on Jarid1B was 1 to 10 µM; on JMJD2C it was 1 to 10 µM; against FBXL10 it was below 0.1 µM; on JMJD2A it was above 10 µM.

As for `O=C(O)c1ccnc(-n2nc(Cc3ccc(Cl)cc3)cc2O)c1` [Example 165, 2-[3-[(4-chlorophenyl)methyl]-5-hydroxypyrazol-1-yl]pyridine-4-carboxylic acid], the IC50 is 0.1 to 1 µM at Jarid1B, 1 to 10 µM at JMJD2C, below 0.1 µM on FBXL10 and above 10 µM on JMJD2A.

With `Oc1cc(Cc2ccc(Cl)cc2)nn1-c1cc(-c2nnn[nH]2)ccn1` [Example 169, 5-[(4-chlorophenyl)methyl]-2-[4-(1H-tetrazol-5-yl)pyridin-2-yl]pyrazol-3-ol], the IC50 against Jarid1B is 1 to 10 µM; against JMJD2C it was 1 to 10 µM; at FBXL10 it was below 0.1 µM; at JMJD2A, above 10 µM.

Consider “methyl 2-[5-(benzyloxy)-1H-pyrazol-1-yl]pyridine-4-carboxylate [Example 62]”, for which, in the experiment with KDM5A/B, the IC50 is 1 to 10 µM.

The term IC50 denotes the point on the concentration scale where inhibition reaches its midpoint.
